Measurements from patent US20160106102A1, “KNOWN AND NEW HETEROCYCLIC COMPOUNDS AS PEST CONTROL AGENTS” (BAYER CROPSCIENCE AKTIENGESELLSCHAFT, priority 2013, published 2016).

Tests used:
Myzus persicae = Myzus persicae - sachet test; format: in vivo; details: 100% = all animals killed
Outline: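 Green peach aphids feed through a sealed sachet on nutrient medium containing the water-diluted formulation (solvents: 2% N-methylpyrrolidone, 2% diacetone alcohol). Percent mortality read after the chosen time; 100% means all animals killed.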

[1] = log P determination by LC-MS in the acidic range; format: physicochemical
From the text: The LC-MS determination in the acidic range is effected at pH 2.7 using 0.1% aqueous formic acid and acetonitrile (contains 0.1% formic acid) as eluents, linear gradient from 10% acetonitrile to 95% acetonitrile. Alternatively, the determination is effected in the acidic range at pH 2.3 using 0.1% aqueous phosphoric acid and acetonitrile as eluents; linear gradient from 10% acetonitrile to 95% acetonitrile.

[2] = application rate of 6 ppm in nutrient medium
[3] = application rate of 30 ppm in nutrient medium
[4] = Table 3, HPLC on reversed-phase column (C 18), 55° C., acidic range (pH 2.7 or pH 2.3)
[5] = Table 2, compounds of the formula (I-2), acidic range pH 2.7 or pH 2.3

Structure (SMILES) | efficacy (kill in %) (Myzus persicae; [2]) [%] | efficacy (kill in %) (Myzus persicae; [3]) [%] | log P (acid) ([1]; LC-MS in the acidic range) | log P (acid) [1, 4] | log P (acid) [1, 5] | log P (acid) ([1]; Table 4, HPLC on reversed-phase column (C 18), 55° C., acidic range (pH 2.7 or pH 2.3))
Cc1cc(NC(=O)c2cccnc2)nn1C(=O)NCC1CC1 [Compound I-1-316] | 100 | 100 | 1.65 | – | – | –
O=C(Nc1cc(C2CC2)n(Cc2ccccc2)n1)c1cccnc1 [Compound I-1-56] | – | 100 | 2.1 | – | – | –
CC(=O)n1nc(NC(=O)c2cccnc2)cc1C [Compound I-1-120] | 100 | 100 | 1.18 | – | – | –
O=C(Nc1ccn(Cc2cccc(C(F)(F)F)c2)n1)c1ccc(Cl)nc1 [Compound I-1-87] | – | 100 | 2.82 | – | – | –
Cc1cc(N(CC(F)F)C(=O)c2cccnc2)nn1Cc1ncccn1 [Compound I-1-265] | 100 | 100 | 1.19 | – | – | –
O=C(Nc1ccn(Cc2cccc(OC(F)(F)F)c2)n1)c1cccnc1 [Compound I-1-73] | – | 100 | 2.20 | – | – | –
O=C(Nc1cnn(-c2ncc(C(F)(F)F)cc2Cl)n1)c1cccnc1 [Compound I-3-5] | – | 100 | – | 2.12 | – | –
Cc1cc(NC(=O)c2cccnc2)nn1CC(=O)Cc1ccccc1Cl [Compound I-1-247] | 100 | 100 | 1.92 | – | – | –
Cc1nn(-c2ncccc2Cl)nc1NC(=O)c1cccnc1 [Compound I-3-9] | – | 100 | – | 1.24 | – | –
Cc1cc(NC(=Nc2ccc(Cl)cc2Cl)c2cccnc2)nn1C [Compound I-1-232] | – | 100 | 1.77 | – | – | –
Cc1cc(NC(=O)c2cccnc2)nn1C(=O)N(C)S(=O)(=O)c1ccccc1 [Compound I-1-263] | 100 | 100 | 2.13 | – | – | –
Cc1ccccc1Cn1cnc(NC(=O)c2cccnc2)n1 [Compound I-2-23] | – | 100 | – | – | 1.23 | –
Cc1cc(NC(=O)c2cccnc2)nn1Cc1csc(C(F)(F)F)n1 [Compound I-1-302] | 100 | 100 | 1.93 | – | – | –
Cc1cc(C)nc(-n2nc(NC(=O)c3cncc(F)c3)cc2C)n1 [Compound I-1-132] | – | 100 | 2.04 | – | – | –
Cc1cc(NC(=O)c2cccnc2)nn1-c1ccc(Cl)cc1 [Compound I-1-209] | 80 | 100 | 2.09 | – | – | –
O=C(Nc1ccn(Cc2ccccc2C(F)(F)F)n1)c1cccnc1 [Compound I-1-91] | – | 100 | 2.09 | – | – | –
Cc1cc(NC(=O)c2cccnc2)nn1CC1COc2ccccc2O1 (centres unmarked) [Compound I-1-157] | – | 100 | 1.99 | – | – | –
O=C(Nc1cnn(-c2ncccc2Cl)n1)c1cccnc1 [Compound I-3-16] | – | 100 | – | 1.32 | – | –
Cc1cc(NC(=O)c2cccnc2)nn1Cc1nc2cc(Cl)ccc2o1 [Compound I-1-340] | 100 | 100 | 2 | – | – | –

Structure (SMILES) | efficacy (kill in %) (Myzus persicae; [2]) [%] | efficacy (kill in %) (Myzus persicae; [3]) [%] | log P (acid) ([1]; LC-MS in the acidic range) | log P (acid) [1, 4] | log P (acid) [1, 5] | log P (acid) ([1]; Table 4, HPLC on reversed-phase column (C 18), 55° C., acidic range (pH 2.7 or pH 2.3))
Cc1cc(NC(=O)c2cccnc2)nn1C(=O)NC(C)c1ccccc1 (centres unmarked) [Compound I-1-331] | 100 | 100 | 2.22 | – | – | –
O=C(Nc1ccn(Cc2ccccc2)n1)c1cccnc1 [Compound I-1-84] | 100 | 100 | 1.52 | – | – | –
Cc1cc(NC(=O)c2cncc(F)c2)nn1CC(F)(F)F [Compound I-1-135] | – | 100 | 1.79 | – | – | –
O=C(Nc1ncn(Cc2cccc(Cl)c2)n1)c1cccnc1 [Compound I-2-19] | – | 100 | – | – | 1.33 | –
O=C(Nc1nn(-c2ncccc2Cl)nc1C(F)(F)F)c1cccnc1 [Compound I-3-6] | – | 100 | – | 1.89 | – | –
N#Cc1ccccc1Cn1ccc(NC(=O)c2cccnc2)n1 [Compound I-1-89] | 100 | 100 | 1.37 | – | – | –
Cc1cc(NC(=O)c2cnc(Cl)c(Cl)c2)nn1Cc1ccccc1 [Compound I-1-100] | – | 100 | 3.18 | – | – | –
Cc1cc(NC(=O)c2cccnc2)nn1C(=O)N1CCCC1 [Compound I-1-161] | 80 | 100 | 1.29 | – | – | –
CCN(CC)C(=O)n1nc(NC(=O)c2cccnc2)cc1C [Compound I-1-290] | 100 | 100 | 2.31 | – | – | –
CCS(=O)(=O)n1nc(NC(=O)c2cccnc2)cc1C [Compound I-1-278] | – | 100 | 1.29 | – | – | –
Cc1cc(NC(=O)c2cccnc2)nn1C(=O)NCc1cccc(F)c1 [Compound I-1-327] | 100 | 100 | 2.1 | – | – | –
Cc1cc(NC(=O)c2cccnc2)nn1Cc1ncccc1Cl [Compound I-1-37] | 100 | 100 | 1.42 | – | – | –
Cc1cc(NC(=O)c2cncnc2)nn1Cc1ccccc1 [Compound I-1-66] | – | 100 | 1.76 | – | – | –
O=C(Nc1ccn(Cc2c(F)cccc2F)n1)c1cccnc1 [Compound I-1-68] | – | 100 | 1.55 | – | – | –
COc1cc(OC)nc(Cn2nc(NC(=O)c3cccnc3)cc2C)n1 [Compound I-1-53] | 100 | 100 | 1.59 | – | – | –
Cc1c(Br)c(NC(=O)c2cccnc2)nn1Cc1ncccn1 [Compound I-1-125] | – | 100 | 0.98 | – | – | –
Cc1cc(NC(=O)c2cccnc2)nn1Cc1ncc(Cl)cn1 [Compound I-1-195] | 100 | 100 | 1.23 | – | – | –
Cn1cnc(NC(=O)c2cccnc2)n1 [Compound I-2-14] | – | 100 | – | – | <−0.23 | –
CCc1nc(NC(=O)c2cccnc2)nn1-c1ccccc1 [Compound I-2-6] | – | 100 | – | – | 1.24 | –

Structure (SMILES) | efficacy (kill in %) (Myzus persicae; [2]) [%] | efficacy (kill in %) (Myzus persicae; [3]) [%] | log P (acid) ([1]; LC-MS in the acidic range) | log P (acid) [1, 4] | log P (acid) [1, 5] | log P (acid) ([1]; Table 4, HPLC on reversed-phase column (C 18), 55° C., acidic range (pH 2.7 or pH 2.3))
Cc1cc(NC(=O)c2cccnc2)nn1C(C)(C)C [Compound I-1-347] | 80 | 100 | 1.61 | – | – | –
O=C(Nc1ccn(Cc2ccccc2F)n1)c1cccnc1 [Compound I-1-88] | 100 | 100 | 1.58 | – | – | –
CCOC(=O)c1ccc(Cn2ccc(NC(=O)c3cccnc3)n2)cc1 [Compound I-1-92] | – | 100 | 1.85 | – | – | –
O=C(Nc1nnn(Cc2ccc(Cl)nc2)n1)c1cccnc1 [Compound I-4-3] | 100 | 100 | – | – | – | 1.05
Cc1cc(NC(=O)c2ccc(Cl)nc2)nn1Cc1ccccc1F [Compound I-1-93] | – | 100 | 2.59 | – | – | –
Cc1cc(NC(=O)c2cccnc2)nn1C(=O)NCCOc1ccccc1 [Compound I-1-168] | 100 | 100 | 2.18 | – | – | –
O=C(Nc1ccn(Cc2cccc(C(F)(F)F)c2)n1)c1cccnc1 [Compound I-1-71] | – | 100 | 2.07 | – | – | –
Cc1cccc(Cn2ccc(NC(=O)c3cccnc3)n2)c1 [Compound I-1-72] | 100 | 100 | 1.83 | – | – | –
Cc1cc(NC(=O)c2ccnnc2)nn1-c1ccccn1 [Compound I-1-249] | – | 100 | 1.83 | – | – | –
COC(=O)c1cccc(Cn2ccc(NC(=O)c3cccnc3)n2)c1 [Compound I-1-77] | 100 | 100 | 1.57 | – | – | –
Cc1cc(NC(=O)c2cncc(Br)c2)nn1Cc1ccccc1 [Compound I-1-99] | – | 100 | 2.58 | – | – | –
Cc1cc(NC(=O)c2cccnc2)nn1Cc1nc(-c2ccccc2)no1 [Compound I-1-300] | 100 | 100 | 2.01 | – | – | –
Cc1cc(NC(=O)c2cncc(F)c2)nn1C(C)(C)C [Compound I-1-348] | – | 80 | 2.13 | – | – | –
Cc1noc(Cn2nc(NC(=O)c3cccnc3)cc2C)n1 [Compound I-1-284] | 100 | 100 | 0.92 | – | – | –
O=C(Nc1cc(C2CC2)n(Cc2ccc(Cl)nc2)n1)c1cccnc1 [Compound I-1-29] | 100 | 100 | 1.77 | – | – | –
Cc1cc(NC(=O)c2cccnc2)nn1S(=O)(=O)c1cccnc1 [Compound I-1-280] | 80 | 100 | 1.45 | – | – | –
Cc1cc(NC(=O)c2cccnc2)nn1Cn1c(=O)n(C)c(=O)n1C [Compound I-1-145] | – | 100 | 0.82 | – | – | –
Cc1cc(NC(=O)c2cccnc2)nn1C(=O)NCc1ccncn1 [Compound I-1-336] | 100 | 100 | 1.05 | – | – | –
